# Values quoted from earlier work, collected in patent publication US20130065959A1, “SANITIZING MEAT WITH PERACID AND 2-HYDROXY ORGANIC ACID COMPOSITIONS” (Fresh Express Incorporated, priority 2009, published 2013).
# Conditions: cited from earlier work
row,SMILES,Oxidation Capacity
1,"OCl [Sodium hypochlorite (Chlorine bleach), Sodium hypochlorite]",1.36 eV
2,[O][Cl+][O-] [Chlorine Dioxide],1.57 eV
3,O=[O+][O-] [Ozone],2.07 eV
